Tests used:
lymphocyte = lymphocyte transformation; type: cell-based
[1] = test system: mammalian macrophage membrane; assay: incorporation of choline into the mammalian macrophage membrane; type: cell-based
methemoglobin = test system: methemoglobin; parameters: species or system mice; details: mouse, in vivo
mice = assay: acute toxicity as measured by LD50 in mice; type: in vivo; details: compared with dapsone
Marek's disease = details: cited from earlier work
[2] = test system: chick peritoneal macrophages; details: Shigeura et al., 1975; cited from earlier work
[3] = cited from earlier work; for ability to alter the course of the disease / immune complexes as measured by rheumatoid factor titers: rheumatoid arthritis

Compound	lymphocyte transformation (lymphocyte)	incorporation of choline into the mammalian macrophage membrane [1]	ability to alter the course of the disease [3]	immune complexes as measured by rheumatoid factor titers [3]	also measured
NC(=O)Nc1ccc(S(=O)(=O)c2ccc(N)cc2)cc1 [1-[4-(4-sulfanilyl)phenyl]urea]	effect lymphocyte transformation	inhibit the incorporation	–	–	methemoglobin formation (methemoglobin): significantly less active in producing this toxic syndrome; acute toxicity as measured by LD50 (mice): less acutely toxic than dapsone; lesion incidence of poultry exposed to Marek's disease (Marek's disease): decreasing lesion incidence; mortality of poultry exposed to Marek's disease (Marek's disease): reducing mortality; incorporation of chloline in chick peritoneal macrophages [2]: inhibit the incorporation
gold	–	–	can alter the course of the disease	reducing the immune complexes	–
Nc1ccc(S(=O)(=O)c2ccc(N)cc2)cc1 [Dapsone, 4,4'-diaminodiphenylsulfone]	effect lymphocyte transformation	inhibit the incorporation	–	–	effectiveness in treating rheumatoid arthritis ([3]; McConkey et al., 1976): effective in treating rheumatoid arthritis
CC(C)(S)[C@@H](N)C(=O)O [D-penicillamine]	–	–	can alter the course of the disease	reducing the immune complexes	–
CC(=O)Oc1ccccc1C(=O)O [aspirin]	–	–	unable to alter the course of the disease	–	symptomatic relief of the acute syndrome characterizing rheumatoid arthritis ([3]; in vivo): effective in providing symptomatic relief of the acute syndrome
